Data: ChEMBL document CHEMBL1154198, “Chemical genetics of Plasmodium falciparum” (Nature, 2010)

Columns and labels:
Plasmodium falciparum [1] = experiment: ST_JUDE: Plasmodium falciparum 3D7 EC50 (uM) as measured by SYBR green dye; assay type: functional, organism-based
Plasmodium falciparum [2] = experiment: ST_JUDE: Plasmodium falciparum K1 EC50 (uM) as measured by SYBR green dye; assay type: functional, organism-based

Row | SMILES | EC50 (Plasmodium falciparum [1]) [µM] | EC50 (Plasmodium falciparum [2]) [µM]
1 | Cc1cc(Nc2ccc(C)c(F)c2)n2ncnc2n1 | > 15 | > 15
2 | CCC(C)c1ccc(O)c(NC(=O)c2cncc(Br)c2)c1 (stereo unspecified) | 2.15 | 1.59
3 | O=C(CSc1nc(-c2ccccc2Cl)ns1)Nc1cccc(Cl)c1 | 1.39 | 1.7
4 | COc1ccc(C2C(C(=O)Nc3cc(C)ccc3OC)c3ccccc3C(=O)N2C)cc1 (stereo unspecified) | 2.1 | 3.73
5 | C=CCOc1ccc(C(=O)Nc2nonc2-c2ccc(OC)c(OC)c2)cc1 | 0.591 | 0.689
6 | COc1cc2c(cc1OC)C(C(=O)Nc1ccc(C(F)(F)F)cc1)C(c1cccs1)N(C)C2=O (stereo unspecified) | 2.34 | 3.05
7 | CCCCC(=O)NC(c1cccs1)c1cc(Cl)c2cccnc2c1O (stereo unspecified) | > 15 | > 15
8 | CCN1/C(=C/c2cccc[n+]2C)Sc2ccccc21 | 4.47 | > 15
9 | COc1cccc(C(=O)NC(c2ccc(Cl)cc2)c2cc(Cl)c3cccnc3c2O)c1 (stereo unspecified) | 2.01 | 1.66
10 | CC(C)CCNCC(O)Cn1c2ccc(Br)cc2c2cc(Br)ccc21 (stereo unspecified) | 0.492 | 0.149
11 | Cc1cc(/C=N/n2cnnc2)c(C)n1-c1ccc(Br)cc1 | > 15 | > 15
12 | CCO/C(O)=C1\C(C)=NC2=C(C(=O)CC(c3ccc(OC)c(OC)c3)C2)C1c1ccc(SC)cc1 (stereo unspecified) | 3.2 | 3.18
13 | CC(=O)CCc1ccc(OCCN2CCOCC2)cc1 | > 15 | > 15
14 | CCc1ccc(S(=O)(=O)Nc2ccc(Nc3nc(C)cc(Nc4ccc(OC)cc4)n3)cc2)cc1 | 0.577 | 9.28
15 | CCCCN(CC)CCNC(=O)c1cc2cc3ccc(C)cc3nc2o1 | > 15 | 4.09
16 | Cc1cc(O)nc2nnc(SCC(=O)Nc3cccc(Cl)c3)n12 | > 15 | 7.29
17 | COc1ccc(S(=O)(=O)Nc2cc3sc(=O)oc3c3ccccc23)cc1 | > 15 | > 15
18 | CCOC(=O)C(NC(C)=O)(Nc1ccc(S(=O)(=O)Nc2cc(C)on2)cc1)C(F)(F)F (stereo unspecified) | 2.04 | 4.56
19 | COC(CNC(=O)c1ccc(-n2c(C)cc3c2CCCC3)cc1)OC | > 15 | > 15
20 | O=C(Nc1ccc(Cl)cc1)Nc1ccc(F)c(Cl)c1 | 3.72 | 3.57
21 | C[N+]1(CCCCCCCCCCCO)CCCCC1 | > 15 | > 15
22 | COc1ccc(-c2cc(=O)oc3c(OC)c(OC)ccc23)cc1 | > 15 | > 15

Row | SMILES | EC50 (Plasmodium falciparum [1]) [µM] | EC50 (Plasmodium falciparum [2]) [µM]
23 | Cc1ccc(Nc2cc(C)nc(Nc3ccc(NS(=O)(=O)c4ccc(C)cc4)cc3)n2)cc1 | 0.621 | 7.97
24 | Cc1ccc(N2C(=O)CS(=O)(=O)C23C(=O)N(Cc2ccccc2Cl)c2ccccc23)cc1C (stereo unspecified) | 1.33 | 2.43
25 | COc1ccc2c(c1)CN(Cc1ccc(F)cc1)CO2 | 2.13 | 0.372
26 | Oc1c(C(c2ccc(Cl)cc2)N2CCOCC2)ccc2cccnc12 (stereo unspecified) | 2.19 | 2.97
27 | COc1ccc(CN2CCNC(=O)C2CC(=O)NCCOC(C)C)c(OC)c1 (stereo unspecified) | > 15 | > 15
28 | CCN1CCN(c2cc(C)c3cc(NC(=S)NCCCN4CCN(c5cccc(Cl)c5)CC4)ccc3n2)CC1 | 2.24 | 4.24
29 | COCc1cc(CN2CCN(c3ccccc3OC)CC2)c(O)c2ncccc12 | 4.19 | 9.06
30 | CCOc1ccc(-c2nonc2NC(=O)c2cccc(C)c2)cc1OCC | 0.0619 | 0.0832
31 | CCN(CC)CCCNC(=O)C1CCN(c2nc3c(C)cc(C)cc3s2)CC1 | > 15 | > 15
32 | COc1ccccc1/N=C1\C=C(NS(=O)(=O)c2ccc(Cl)cc2)c2ccccc2C1=O | 0.268 | 0.267
33 | Cc1cc(N2CCCC2)nc(Nc2ccc(NS(=O)(=O)c3ccc(Cl)cc3)cc2)n1 | 2.12 | > 15
34 | CCCCC(O)(c1ccc(CC)cc1)C(CN1CCOCC1)c1ccccc1 (stereo unspecified) | 3.9 | 3.44
35 | O=C(c1ccco1)N(Cc1ccccc1)c1cccc([N+](=O)[O-])c1 | > 15 | > 15
36 | Cc1ccc(/C(O)=C/C=N/c2cc([N+](=O)[O-])ccc2O)cc1 | > 15 | 1.69
37 | C#CCSc1c(CCCC)cnc2c1c(=O)n(C)c(=O)n2C | > 15 | > 15
38 | CCS(=O)(=O)Nc1ccc(C2=NN(C(=O)c3ccco3)C(c3ccc(F)cc3)C2)cc1 (stereo unspecified) | > 15 | 6.12
39 | COc1ccc(NC(=O)C2c3ccccc3C(=O)N(C)C2c2cccs2)cc1Cl (stereo unspecified) | 1.07 | 1.35
40 | Cc1ccc(CN2CCN(C3CCCCC3)C(CCO)C2)cc1C (stereo unspecified) | > 15 | > 15
41 | Cc1ccccc1NC(=O)C1c2ccccc2C(=O)N2CCc3ccccc3C12 (stereo unspecified) | 4.15 | > 15
42 | COc1ccc(Br)cc1C(Nc1ccccn1)c1cc(Cl)c2cccnc2c1O (stereo unspecified) | > 15 | 2.95
43 | Cc1ccc(CN2CCN(c3nc4c(c(=O)[nH]c(=O)n4C)n3Cc3ccc(C)cc3)CC2)cc1 | > 15 | > 15
44 | O=C(Nc1nc(-c2ccccn2)cs1)c1ccccc1Br | 4.53 | 2.05

Row | SMILES | EC50 (Plasmodium falciparum [1]) [µM] | EC50 (Plasmodium falciparum [2]) [µM]
45 | CC(=O)NC(c1ccc(Cl)cc1)c1ccc2cccnc2c1O (stereo unspecified) | 1.93 | 2.15
46 | CCOc1cc(Br)c(C2C(C#N)=C(N)Oc3cc(O)ccc32)cc1OCC (stereo unspecified) | 3.8 | 1.52
47 | CC1CCN(C(=O)c2cc(COc3ccc(F)cc3F)on2)CC1 | > 15 | > 15
48 | O=[N+]([O-])c1nonc1NCn1nnc2ccccc21 | 5.07 | 7.28
49 | CCOC(=O)c1ccc(NC2=C(n3nnc4ccccc43)C(=O)c3ccccc3C2=O)cc1 | 3.23 | 0.678
50 | CCN(CC)CCNC(=O)c1ccc2c(c1)sc1nc(-c3ccccc3)cn12 | 1.03 | 1.5
51 | N=C(N)N/N=C/c1ccc(OCc2ccc(Cl)cc2Cl)cc1 | 4.9 | 4.27
52 | Cn1c(=O)oc2cc(S(=O)(=O)N3CCCC(C(=O)N4CCN(C(c5ccccc5)c5ccccc5)CC4)C3)ccc21 (stereo unspecified) | 3.56 | 1.61
53 | CCC1(C)CC(CCN)(c2ccc(C)cc2)CCO1 (stereo unspecified) | 4.8 | > 15
54 | Cc1ccc(Nc2nc(N)c3ccccc3n2)cc1C | 1.33 | 3.91
55 | Cc1cccc(NC(=O)Nc2ccc(S(=O)(=O)C(F)(F)F)cc2)c1C | 1.32 | 1.22
56 | CCCCOc1cccc(C(=O)Nc2ccc(CN3CCCCC3)cc2)c1 | > 15 | > 15
57 | O=C(Nc1nnc(-c2ccc3c(c2)CCCC3)o1)c1ccc(F)cc1 | > 15 | > 15
58 | Oc1c(Cl)cc(Cl)cc1CN1CCN(c2ccccc2F)CC1 | 1.85 | 0.861
59 | CCc1ccc(C2C3=C(O)CC(C)(C)CC3=Nc3cc(OC)c(OC)c(OC)c32)cc1 (stereo unspecified) | > 15 | 4.85
60 | CCCCc1ccc(NC(=S)NN2CCN(C)CC2)cc1 | > 15 | > 15
61 | CCCCOCCCN1C(=O)CSC1c1cnccc1-c1ccc(Br)cc1 (stereo unspecified) | 2.38 | 1.76
62 | CCCN1CCN(CCCNC(=O)c2ccc3c(c2)sc2nc(-c4ccc(C)cc4)cn23)CC1 | 2.02 | 4.65
63 | CCOC(=O)C1=CN(Cc2ccc(F)cc2)C=C(C(=O)OCC)C1c1cc(OC)c(OC)c(OC)c1 | > 15 | 0.521
64 | Cc1cc(C)c2sc(NNC(=O)c3ccc(S(=O)(=O)N(C)C)cc3)nc2c1 | 5.94 | 4.89
65 | COc1ccccc1Nc1nc(NCc2ccccc2)c2ccccc2n1 | 3.97 | 11.8
66 | CC(C)CC(C)N1CCC(n2nccc2NC(=O)Nc2ccccc2Cl)CC1 (stereo unspecified) | 8.23 | > 15

Row | SMILES | EC50 (Plasmodium falciparum [1]) [µM] | EC50 (Plasmodium falciparum [2]) [µM]
67 | COc1ccccc1C(=O)Nc1nnc(Cc2nc3ccccc3[nH]2)s1 | > 15 | > 15
68 | O=[N+]([O-])c1ccc(C2N(Cc3ccccc3)CCN2Cc2ccccc2)cc1 | > 15 | > 15
69 | CCCCNC(=O)CSCc1cnn(-c2ccccc2)c1-n1cccc1 | 0.506 | 4.06
70 | COc1ccc(CC(=O)N2CC(=O)Nc3ccc(Cl)cc3C2c2ccc(F)cc2)cc1 (stereo unspecified) | > 15 | > 15
71 | CCc1cc(-c2[nH]nc(C)c2Oc2ccccc2)c(O)cc1OC(C)C | 3.66 | 1.46
72 | COc1ccc(-c2cn3c(n2)sc2cc(C(=O)NCCCN4CCN(C)CC4)ccc23)cc1 | 2.04 | 6.14
73 | O=C1C(Nc2ccc(I)cc2)=C(N2CCCCC2)C(=O)c2ccccc21 | 0.153 | 0.395
74 | CCCCN1COc2ccc3c(-c4ccccc4)cc(=O)oc3c2C1 | 1.92 | 0.598
75 | COc1cc(-c2nc(-c3ccccc3)c(-c3ccccc3)[nH]2)cc(OC)c1OC | > 15 | > 15
76 | C=CCN1C(=S)NC2c3cc(Br)ccc3OC1(C)C2C (stereo unspecified) | 2.58 | 3.1
77 | CC1(C)N=C(N)N=C(N)N1c1ccc(F)cc1 | 0.095 | 2.31
78 | CCCC(=O)C1=C(c2cccc(OC)c2)N(C(=O)CCC)n2cnnc2S1 | > 15 | > 15
79 | O=C1CC(c2ccc([N+](=O)[O-])cc2)C2=C(CC(c3cccs3)CC2=O)N1 (stereo unspecified) | 4.89 | 2.74
80 | OCCNc1nc(Nc2ccc(Cl)c(Cl)c2)nc2ccccc12 | > 15 | 4.32
81 | CCCN1CC=C2C(C#N)=C(N)C(C#N)(C#N)C(c3ccccc3C(F)(F)F)C2C1 (stereo unspecified) | 1.12 | 0.479
82 | CCOC(=O)c1cccc(NC(=O)CC2C(=O)N(c3ccc(Cl)cc3)C(=O)N2C2CCCC2)c1 (stereo unspecified) | 1.42 | 2.7
83 | Cc1ccccc1Nc1nc(NCc2ccco2)c2ccccc2n1 | 3.55 | > 15
84 | Cc1n(CC(O)COc2cccc(Cl)c2)c2ccccc2[n+]1C (stereo unspecified) | > 15 | > 15
85 | CCc1ccccc1NC(=O)c1csc2c1CCC(C)C2 (stereo unspecified) | > 15 | > 15
86 | O=C(c1cccc(C(F)(F)F)c1)N1CCN(c2ccc(N3CCCCCC3)nn2)CC1 | > 15 | > 15
87 | CCOC(=O)c1ccc(NC(=O)Cc2csc(NC(=O)Nc3ccccc3)n2)cc1 | > 15 | > 15
88 | CCN(CC)CC(O)COc1ccccc1C(=O)CCc1ccccc1 (stereo unspecified) | 2.17 | 1.08
